In US20210393932A1, “DERMAL PATCHES AND GLASS SWABS FOR APPLICATION OF TOPICAL IMMUNOSENSITIZERS” (Squarex, LLC, priority 2020, published 2021):
Where “and” joins values, the source holds several entries; their conditions need not be identical. Equal values may be shown once.

Experiments:
[1] = Residual SADBE and SAMBE in patches after 12 hours on guinea pigs; assay type: in vivo, guinea pig
Protocol: Patches were removed from the pigs at the indicated times and immediately the reservoir portion of the patch was cut out and placed in a 50 ml tube with 10 ml of DMSO. The tubes of DMSO with patches were transported to the Squarex laboratory, shaken at 200 rpm for 1 hour or more, and then the DMSO from each tube was placed in an injection vial and analyzed for SADBE content by HPLC on a C18 column with the program SADBE3-50 ul. SADBE elutes in this program at about 24.0 minutes and absorbs at 255 nm, so the area of the 24.0 min peak at 255 nm was used to quantify SADBE. The SADBE degradation product squaric acid monobutyl ester (SAMBE) was also quantified by 255 nm area under the curve at the elution time of 12.7 minutes.

[2] = Toxicity evaluation (body weight, food consumption, necropsy, histopathology) in Gottingen mini-pig; assay type: in vivo, Gottingen miniswine
Text: The purpose of this nonGLP study was to evaluate the effect of various concentrations of SADBE delivered via dermal patch, for dose site irritation and toxicity endpoints such as body weights, group food consumption, clinical observation, pre-termination clinical pathology, gross and histopathology.
(§1) A total of 6 Gottingen miniswine (3 female and 3 male) was used in this nonGLP study. Prior to dosing, the baseline body weights, group food consumption, and Draize scoring (see tables 1 and 2) for erythema and eschar formation and edema at the future dose site were recorded. A dermal patch (1 patch/animal) loaded with 20 microliters of 2, 6, or 18% SADBE drug solution was applied to animals, and left in place for ˜12 hours. Following the ˜12 hour dosing period, patch sites was assessed by Draize scoring as in Example 5, 5×/week for 21 days. […] After the 25 day assessment period, the animals were re-challenged and a second dosing and assessment phase performed for 30 days. At the end of the survival period, animals were humanely euthanized and a complete necropsy was performed. The test article vials used to prepare patches and mini-pig exposed patches were collected after application to determine SADBE content and SADBE degradation product squaric acid monobutyl ester (SAMBE) using HPLC at Squarex's Laboratory.
Dose site was explanted, fixed, and embedded. Dose sites were examined histologically and an evaluation of cell type presence and tissue response conducted.

[3] = system: PBMCs in the presence of HSV-1; test: Immune gene expression and proliferation of PBMCs from subjects dosed once with SADBE; assay type: cell-based, human
Text: Introduction: Differences in immune characteristics, including immune gene expression by peripheral blood mononuclear cells (PBMCs), correlating with herpes labialis and good or poor immune control of herpes simplex virus type 1 (HSV-1) (i.e., frequency of herpes labialis episodes), and how these characteristics change after dosing with squaric acid dibutyl ester (SADBE), were investigated. Methods: PBMCs were collected from persons positive for IgG against HSV-1 and having frequent (self-reported 6 or more episodes in the prior 12 months), infrequent (1 or 2 episodes in the prior 12 months), or no herpes labialis outbreaks in the prior 12 months. The PBMCs were tested for proliferation against HSV-1 and a fungal antigen (Candida) and immune gene expression in the presence of HSV-1 and Candida. On day 1 after blood collection the subjects with frequent outbreaks were dosed topically on the arm once with 2% SADBE in DMSO, and their PBMCs were collected and tested 2 weeks later and 8 weeks later.
Doses were applied by dipping a cotton swab in a 1-ml vial of liquid study medication, then swabbing a spot on the inner aspect of the upper arm over an area of about 10 to 15 mm diameter encircled by petroleum jelly. After application, the spot was covered by TEGADERM™ dressing, and subjects were advised to remove the dressing and wipe the spot with a wet cloth 3 hours later. The weight of the vial of study medication with the vial standing in it was measured immediately before and immediately after dosing each subject. The difference was the net mass of drug applied. In most cases, 10 mg to 20 mg of drug solution was applied to the arm.

[4] = system: mini pig skin; test: Cutaneous irritation (Draize, Primary Irritation Index) after SADBE dermal patch in Gottingen mini-pig; assay type: in vivo, Gottingen miniswine; conditions: for Primary Irritation Index (pII) / Primary Irritation Index (pII), transient peak: 0-8 scale; for Primary Irritation Index (pII), transient peak: after the second dose; for duration of moderate levels of irritation / time to return to non-irritating levels post-dermal-application: re-challenge; for duration of severe cutaneous irritation: re-challenge at naive site
Protocol: as §1
Cutaneous irritation at the test site was observed and scored each day of the study by the Draize Scale for both Erythema & Eschar and Edema. The scale for each is in Tables 9 and 10 in Example 5, each on a 0-4 scale. The cumulative Erythema & Eschar and Edema score was the Primary Irritation Index score, which would therefore be on a 0-8 scale.
The daily primary irritation index (pII) for each test article dose over the course of the study was calculated (FIG. 5). The pII is used to categorize the test article treatments as negligible to not irritating (0-0.9), slight (0.9-1.9), moderate (2-4.9) or severe (5-8) irritation potential.

[5] = any dose (2%, 6%, 18% SADBE patch)
[6] = single topical dose of 2% SADBE in DMSO to the arm, 56 days after dose vs day 1

Compound: CCCCOc1c(OCCCC)c(=O)c1=O [SADBE, squaric acid dibutyl ester]
- SADBE as % of expected (remaining in patch) ([1]; 2% patches, range of 10 patches): 0.0-1.3%
- SADBE as % of expected (remaining in patch) ([1]; 6% patches, average of 10 patches): 11% and 10.67%
- SADBE as % of expected (remaining in patch) ([1]; 6% patches, range of 10 patches): 2.7-22.7%
- SADBE as % of expected (remaining in patch) ([1]; 18% patches, average of 10 patches): 34% and 34.13%
- SADBE as % of expected (remaining in patch) ([1]; 18% patches, range of 10 patches): 23.0-46.5%
- histopathology of treated skin sites: inflammatory infiltrates in the dermis ([2]; 2% & 6% SADBE): multifocal rare to mild infiltrates of inflammatory cells
- histopathology of treated skin sites: inflammatory infiltrates in the dermis ([2]; 18% SADBE): multifocal mild to heavy infiltrates of inflammatory cells
- histopathology: necrosis and fatty infiltration ([2]; all SADBE treated sites): minimal multifocal necrosis and fatty infiltration were observed
- Cervical and Inguinal lymph node sections ([2]; all animals, all doses): within normal limits
- gross necropsy ([2]; all doses): No abnormalities were noted
- histopathology: parakeratosis ([2]; all sections examined): mild to moderate parakeratosis
- effect on body weight [2, 5]: no significant effect
- effect on food consumption [2, 5]: no significant effect
- histopathology: neovascularization and fibrosis ([2]; any tissue sections examined): Neovascularization and fibrosis was not noted
- PBMC gene expression or proliferation measures vs day 1 ([3]; 2 weeks after the one dose of 2% SADBE): did not differ
- IFNG expression in PBMCs in the presence of HSV-1 virus [3, 6]: increasing
- IL5 expression in PBMCs in the presence of HSV-1 virus [3, 6]: decreasing
- irritation category by Primary Irritation Index (pII) ([4]; 2% SADBE, 20 microliters patch, ~12 hours, first dose): moderately irritating
- Primary Irritation Index (pII) ([4]; 2% SADBE, after the first dose): ~3.5
- Primary Irritation Index (pII), transient peak ([4]; 2% SADBE): 5
- duration of moderate cutaneous irritation ([4]; 2% SADBE, induction): > 15 days
- duration of moderate levels of irritation ([4]; 2% SADBE): ~17 days
- time to return to non-irritating levels post-dermal-application ([4]; 2% SADBE): ~22 days
- irritation category by Primary Irritation Index (pII) ([4]; 2% SADBE, re-challenge (second dose)): moderately-severely irritating
- duration of severe cutaneous irritation ([4]; 2% SADBE): 1 to 2 days
- irritation category by Primary Irritation Index (pII) ([4]; 6% SADBE, 20 microliters patch, ~12 hours, first dose): moderately irritating
- Primary Irritation Index (pII) ([4]; 6% SADBE, after the first dose): 3.0-4.0
- Primary Irritation Index (pII), transient peak ([4]; 6% SADBE): 5.5
- duration of moderate cutaneous irritation ([4]; 6% SADBE, induction): ~21 days
- duration of moderate levels of irritation ([4]; 6% SADBE): ~19 days
- time to return to non-irritating levels post-dermal-application ([4]; 6% SADBE): ~22 days
- irritation category by Primary Irritation Index (pII) ([4]; 6% SADBE, re-challenge (second dose)): moderately-severely irritating
- duration of severe cutaneous irritation ([4]; 6% SADBE): 1 days
- irritation category by Primary Irritation Index (pII) ([4]; 18% SADBE, 20 microliters patch, ~12 hours, first dose): moderately-severely irritating
- Primary Irritation Index (pII) ([4]; 18% SADBE, first dose): ~5.0
- duration of moderate-severe cutaneous irritation ([4]; 18% SADBE, induction): ~22 days
- duration of moderate levels of irritation ([4]; 18% SADBE): ~24 days
- time to return to non-irritating levels post-dermal-application ([4]; 18% SADBE): ~26 days
- irritation category by Primary Irritation Index (pII) ([4]; 18% SADBE, re-challenge (second dose)): severely irritating
- duration of severe cutaneous irritation ([4]; 18% SADBE): ~5 days
- Primary Irritation Index (pII) ([4]; 18% SADBE, second dose): ~6
